Assay [1] concerns the target T1, mu opioid receptor (MOR) (Homo sapiens, UniProt P35372). The experiment in a line: PathHunter β-arrestin recruitment assay, PAM mode with EC20 endomorphin-1. The assay is classed as cell-based. Particulars: for β-arr Max. Resp.: maximal response for β-arrestin recruitment; for EC50: β-arrestin recruitment, read-out: β-arr. EC50; for inhibition of β-arrestin recruitment at a static concentration of 5 μM: printed in β-arr. EC50 column. The protocol:
The effects of MOR PAMs and MOR SAMs on receptor activity were assayed using the PathHunter enzyme complementation assay technology (DiscoveRx, CA). A description of the technology employed is as follows.
Beta-Arrestin Pathway: The PathHunter β-arrestin assay monitors the activation of a GPCR in a homogenous, non-imaging assay format using a technology developed by DiscoveRx called Enzyme Fragment Complementation (EFC) with beta-galactosidase (β-Gal) as the functional reporter. […] EA is fused to β-Arrestin and ED is fused to the GPCR of interest. When the GPCR is activated and β-arrestin is recruited to the receptor, ED and EA complementation occurs, restoring β-gal activity, which is measured using chemiluminescent PathHunter Detection Reagents.
In this manner an EC50 for each test compound, and percent maximal response for each test compound, were determined for both the β-arrestin and cAMP pathways. Though the pharmacological effects of a given signal bias can be hypothesized (Raehal et al. (2011) Pharmacol. Rev. 63:1001-1019), it is not possible to know with certainty which bias ratio will be most advantageous in a clinical setting. […] Kenakin 2015a, supra. The information associated with the compounds detailed herein is the first large data set available for the prediction of ligand bias for an MOR PAM.
(In general: Activated receptors often draw arrestin, which recruitment assays turn into a signal.)

Assay [2] concerns the target T1, mu opioid receptor (MOR). Put plainly: Hit Hunter cAMP signaling assay (adenylyl cyclase inhibition), PAM mode with EC20 endomorphin-1. The format is cell-based.
Setting [3] is: adenylyl cyclase inhibition; read-out: cAMP EC50.
The mark [4] stands for this setting: maximal response for adenylyl cyclase inhibition.
Where [5] appears, read: read-out: cAMP EC50; adenylyl cyclase inhibition.

T1 sequence (P35372 whole entry): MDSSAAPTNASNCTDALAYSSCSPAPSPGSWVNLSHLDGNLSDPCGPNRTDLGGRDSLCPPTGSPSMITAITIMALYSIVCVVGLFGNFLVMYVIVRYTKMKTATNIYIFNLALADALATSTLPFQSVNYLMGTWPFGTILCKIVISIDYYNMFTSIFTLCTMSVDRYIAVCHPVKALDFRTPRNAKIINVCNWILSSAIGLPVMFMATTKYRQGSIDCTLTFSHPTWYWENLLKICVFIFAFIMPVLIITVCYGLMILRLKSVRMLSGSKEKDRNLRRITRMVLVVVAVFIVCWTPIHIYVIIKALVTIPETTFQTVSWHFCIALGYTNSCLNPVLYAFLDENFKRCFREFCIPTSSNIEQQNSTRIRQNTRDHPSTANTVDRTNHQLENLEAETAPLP

As a reminder, the EC50 is the concentration that produces a half-maximal response. Consider `COc1ccc(C2CC(C(F)(F)F)CN2S(=O)(=O)c2ccc(Cl)cc2)cc1Br` (mixture of isomers) [Compound 86], for which, at mu opioid receptor (MOR) [1], the “β-arr Max. Resp.” value is reported as “D (D represents a maximal response of < 40%)” and the EC50 was > 2.1 µM. For the same compound, the half-maximal effective concentration (EC50) on mu opioid receptor (MOR) [2] (setting [3]) was > 2.1 µM. The “cAMP Max. Resp.” value at mu opioid receptor (MOR) [2] (setting [4]) is reported as “D (D represents a maximal response of < 40%)”.
On to `CC1CCN(S(=O)(=O)c2ccc(Cl)cc2)C1c1ccc(Cl)c(C(F)(F)F)c1` (mixture of isomers) [Compound 87], for which, on mu opioid receptor (MOR) [1], the “β-arr Max. Resp.” value is “F (F represents a maximal response of > 60%)”. Further, the EC50 on mu opioid receptor (MOR) [1] and at mu opioid receptor (MOR) [2] (setting [3]) was > 2.1 µM each time. The “cAMP Max. Resp.” value on mu opioid receptor (MOR) [2] (setting [4]) is reported as “D (D represents a maximal response of < 40%)”.
On to `CC1CCN(S(=O)(=O)c2ccc(Cl)cc2)C1c1ccc(Cl)cc1` (mixture of isomers) [Compound 88], for which, on mu opioid receptor (MOR) [1], the “β-arr Max. Resp.” value was “E (E represents a maximal response of 40-60%)”. In addition, the EC50 on mu opioid receptor (MOR) [1] and at mu opioid receptor (MOR) [2] (setting [3]) was > 2.1 µM each time. Moreover, the “cAMP Max. Resp.” value at mu opioid receptor (MOR) [2] (setting [4]) was “D (D represents a maximal response of < 40%)”.
In the case of `CC1CCN(S(=O)(=O)c2ccc(Cl)cc2)C1c1cccc(C(F)(F)F)c1` (mixture of isomers) [Compound 89], at mu opioid receptor (MOR) [1], the “β-arr Max. Resp.” value was “F (F represents a maximal response of > 60%)” and the EC50 is 0.7 to 2.1 µM. The half-maximal effective concentration (EC50) on mu opioid receptor (MOR) [2] (setting [3]) is > 2.1 µM. Also, at mu opioid receptor (MOR) [2] (setting [4]), the “cAMP Max. Resp.” value is reported as “D (D represents a maximal response of < 40%)”.
The like results for `COc1ccc(C2C(C(F)(F)F)CCN2S(=O)(=O)c2ccc(Cl)cc2)cc1Br` (mixture of isomers) [Compound 90] were, in that order, “D (D represents a maximal response of < 40%)”, > 2.1 µM, > 2.1 µM and “D (D represents a maximal response of < 40%)”.
Take `CC1CCN(S(=O)(=O)c2ccc(Cl)cc2)C1c1ccc2c(c1)CCO2` (mixture of isomers) [Compound 91]: at mu opioid receptor (MOR) [1], the “β-arr Max. Resp.” value was “F (F represents a maximal response of > 60%)” and the EC50 was > 2.1 µM. On mu opioid receptor (MOR) [2] (setting [3]), the EC50 is > 2.1 µM. Besides, the “cAMP Max. Resp.” value on mu opioid receptor (MOR) [2] (setting [4]) is “D (D represents a maximal response of < 40%)”.
Regarding `CC1CCN(S(=O)(=O)c2ccc(Cl)cc2)C1c1ccc(Br)c(F)c1` (mixture of isomers) [Compound 92], the “β-arr Max. Resp.” value at mu opioid receptor (MOR) [1] is recorded as “F (F represents a maximal response of > 60%)”. Also, the EC50 is 0.7 to 2.1 µM at mu opioid receptor (MOR) [1] and > 2.1 µM at mu opioid receptor (MOR) [2] (setting [3]). Also, the “cAMP Max. Resp.” value at mu opioid receptor (MOR) [2] (setting [4]) is given as “D (D represents a maximal response of < 40%)”.
The like results for `CC1CCN(S(=O)(=O)c2ccc(Cl)cc2)C1c1ccc(F)c(C#N)c1` (mixture of isomers) [Compound 93] were, in that order, “E (E represents a maximal response of 40-60%)”, 0.7 to 2.1 µM, > 2.1 µM and “D (D represents a maximal response of < 40%)”.
As to `COc1ccc(C2CCCCN2S(=O)(=O)c2ccc(Cl)cc2)cc1Br` (racemic) [compound 4], on mu opioid receptor (MOR) [1], the “β-arr Max. Resp.” value is “F (F represents a maximal response of > 60%)” and the EC50 was > 2.1 µM.
The like results for `COc1ccc(C2CC(C(F)(F)F)CN2S(=O)(=O)c2ccc(Cl)cc2)cc1Br` (single isomer, unassigned) [Compound 111] were, in that order, “F (F represents a maximal response of > 60%)” and > 2.1 µM.
Turning to `COc1ccc(C2CC(F)CN2S(=O)(=O)c2ccc(Cl)cc2)cc1Br` (single isomer, unassigned) [Compound 112], the “inhibition of β-arrestin recruitment at a static concentration of 5 μM” value (shortened to “inhibition of β-arrestin recruitment”) at mu opioid receptor (MOR) [1] is given as “G (G represents < 50% inhibition of β-arrestin recruitment at a static concentration of 5 μM, for compounds that were not tested for adenylyl cyclase inhibition)”.
In the case of `COc1ccc(C2CC(F)CN2S(=O)(=O)c2ccc(Cl)cc2)cc1Br` (single isomer, unassigned) [Compound 114], at mu opioid receptor (MOR) [1], the “β-arr Max. Resp.” value was “D (D represents a maximal response of < 40%)” and the EC50 was > 2.1 µM.
The like results for `COc1ccc(C2N(S(=O)(=O)c3ccc(Cl)cc3)CCC2(F)F)cc1Br` (single isomer, unassigned) [Compound 116] were, in that order, “F (F represents a maximal response of > 60%)” and > 2.1 µM.
The matching figures for `COc1ccc(C2C(C(F)(F)F)CCN2S(=O)(=O)c2ccc(Cl)cc2)cc1Br` (single isomer, unassigned) [Compound 117]: “F (F represents a maximal response of > 60%)” and > 2.1 µM.
Take `Fc1cnc(Cl)nc1N1CCCC(F)C1c1cccc(C(F)(F)F)c1` (single isomer, unassigned) [compound 208]: the half-maximal effective concentration (EC50) on mu opioid receptor (MOR) [2] (setting [5]) fell in the range of 0.7 to 2.1 µM.
Same read-out and setting: in the case of `Fc1cnc(Cl)nc1N1CCCC(F)C1c1cccc(C(F)(F)F)c1` (single isomer, unassigned) [compound 209] it was 0.7 to 2.1 µM.
As for `O=S(=O)(c1ccccc1)N1CCCCC1c1cccc(C(F)(F)F)c1` (centres unmarked) [Compound 19], on mu opioid receptor (MOR) [1], the “inhibition of β-arrestin recruitment” value was “G (G represents < 50% inhibition of β-arrestin recruitment at a static concentration of 5 μM, for compounds that were not tested for adenylyl cyclase inhibition)”.
Turning to `O=S(=O)(c1ccc2ccccc2c1)N1CCCCC1c1cccc(C(F)(F)F)c1` (centres unmarked) [Compound 20], the “inhibition of β-arrestin recruitment” value at mu opioid receptor (MOR) [1] is reported as “G (G represents < 50% inhibition of β-arrestin recruitment at a static concentration of 5 μM, for compounds that were not tested for adenylyl cyclase inhibition)”.
On the same count and under the same terms, in the case of `[2H]C1(c2ccc(F)c(Br)c2)C(F)CCCN1S(=O)(=O)c1ccccc1` (centres unmarked) [Compound 30] it was “G (G represents < 50% inhibition of β-arrestin recruitment at a static concentration of 5 μM, for compounds that were not tested for adenylyl cyclase inhibition)”; in that of `[2H]C1(c2ccc(F)c(Br)c2)C(F)CCCN1S(=O)(=O)c1ccc2ccccc2c1` (centres unmarked) [Compound 31], “G (G represents < 50% inhibition of β-arrestin recruitment at a static concentration of 5 μM, for compounds that were not tested for adenylyl cyclase inhibition)”.
On the same count and under the same terms, as for `[2H]C1(c2ccc(F)c(Br)c2)C(F)CCCN1S(=O)(=O)Cc1ccc(Cl)c(Cl)c1` (centres unmarked) [Compound 34], the entry is “G (G represents < 50% inhibition of β-arrestin recruitment at a static concentration of 5 μM, for compounds that were not tested for adenylyl cyclase inhibition)”; as for `[2H]C1(c2ccc(F)c(Br)c2)C(F)CCCN1S(=O)(=O)Cc1ccccc1` (centres unmarked) [Compound 35], “G (G represents < 50% inhibition of β-arrestin recruitment at a static concentration of 5 μM, for compounds that were not tested for adenylyl cyclase inhibition)”; as for `[2H]C1(c2ccc(F)c(Br)c2)C(F)CCCN1S(=O)(=O)Cc1ccccc1Cl` (centres unmarked) [Compound 36], “G (G represents < 50% inhibition of β-arrestin recruitment at a static concentration of 5 μM, for compounds that were not tested for adenylyl cyclase inhibition)”.
For `[2H]C1(c2ccc(F)c(Br)c2)C(F)CCCN1S(=O)(=O)c1ccc(OC)cc1` (centres unmarked) [Compound 39], the “inhibition of β-arrestin recruitment” value against mu opioid receptor (MOR) [1] was “G (G represents < 50% inhibition of β-arrestin recruitment at a static concentration of 5 μM, for compounds that were not tested for adenylyl cyclase inhibition)”.
`COc1ccc(C2N(S(=O)(=O)c3ccc(Cl)cc3)CCC2(F)F)cc1Br` (centres unmarked) [Compound 113]: on mu opioid receptor (MOR) [1], the “β-arr Max. Resp.” value was “F (F represents a maximal response of > 60%)” and the EC50 is > 2.1 µM.
As to `COc1ccc(C2C(F)CCN2S(=O)(=O)c2ccc(Cl)cc2)cc1Br` (centres unmarked) [Compound 115], at mu opioid receptor (MOR) [1], the “β-arr Max. Resp.” value was “E (E represents a maximal response of 40-60%)” and the concentration giving a half-maximal response (EC50) is > 2.1 µM.
For `COc1ccc(C2CCN2S(=O)(=O)c2ccc(Cl)cc2)cc1Br` (centres unmarked) [compound 40], on mu opioid receptor (MOR) [1], the “β-arr Max. Resp.” value was “D (D represents a maximal response of < 40%)” and the EC50 is > 2.1 µM.
With `COc1ccc(C2CCCN2S(=O)(=O)c2ccc(Cl)cc2)cc1Br` (centres unmarked) [compound 41], on mu opioid receptor (MOR) [1], the “β-arr Max. Resp.” value is reported as “F (F represents a maximal response of > 60%)” and the EC50 was > 2.1 µM.
For `O=S(=O)(c1ccc(Cl)cc1)N1CCCCC1c1ccccn1` (centres unmarked) [compound 45], the “inhibition of β-arrestin recruitment” value against mu opioid receptor (MOR) [1] is “G (G represents < 50% inhibition of β-arrestin recruitment at a static concentration of 5 μM, for compounds that were not tested for adenylyl cyclase inhibition)”.
As to `Cc1cccc(C2CCCCN2S(=O)(=O)c2ccc(Cl)cc2)n1` (centres unmarked) [compound 46], the “inhibition of β-arrestin recruitment” value against mu opioid receptor (MOR) [1] is “G (G represents < 50% inhibition of β-arrestin recruitment at a static concentration of 5 μM, for compounds that were not tested for adenylyl cyclase inhibition)”.
Still for that read-out and setting: as for `N#Cc1cccc(C2CCCCN2S(=O)(=O)c2ccc(Cl)cc2)n1` (centres unmarked) [compound 47], the entry is “G (G represents < 50% inhibition of β-arrestin recruitment at a static concentration of 5 μM, for compounds that were not tested for adenylyl cyclase inhibition)”.
The same measure, in the same setting: as for `FC(F)(F)c1cccc(C2CCCCN2Cc2ccc(Cl)cc2)c1` (centres unmarked) [compound 140], the entry is “G (G represents < 50% inhibition of β-arrestin recruitment at a static concentration of 5 μM, for compounds that were not tested for adenylyl cyclase inhibition)”.
